Results on 1 compound are retold here after patent US9505728B2, “Triazolone compounds and uses thereof” (INCEPTION 2, INC., priority 2012, dated 2016).

One test deals with T1, Human PPARα (Homo sapiens, UniProt Q07869).
T1 construct: host or cells: proprietary non-human mammalian cells
T1 sequence (Q07869 1-468): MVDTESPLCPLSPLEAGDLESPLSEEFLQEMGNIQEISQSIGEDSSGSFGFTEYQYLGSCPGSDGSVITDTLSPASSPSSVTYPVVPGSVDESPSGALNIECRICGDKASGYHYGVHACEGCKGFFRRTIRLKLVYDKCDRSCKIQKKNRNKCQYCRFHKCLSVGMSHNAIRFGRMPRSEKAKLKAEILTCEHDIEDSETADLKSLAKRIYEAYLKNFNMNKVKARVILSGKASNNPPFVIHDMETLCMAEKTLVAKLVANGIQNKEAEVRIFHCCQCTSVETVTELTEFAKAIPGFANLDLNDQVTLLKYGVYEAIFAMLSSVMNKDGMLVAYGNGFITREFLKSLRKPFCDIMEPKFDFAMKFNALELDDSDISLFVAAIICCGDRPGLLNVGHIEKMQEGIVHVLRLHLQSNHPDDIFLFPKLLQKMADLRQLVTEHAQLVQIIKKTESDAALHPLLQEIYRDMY
The test can be described thus: Human PPARα Reporter Assay (luciferase). It counts as cell-based. The essentials:
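Non-human mammalian cells constitutively expressing human PPARα with a PPARα-responsive luciferase reporter were dosed with compounds right after plating. After overnight incubation, media removed and detection reagent added; luminescence taken as proportional to PPARα activation, agonist or antagonist mode.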

The next test addresses T2, PPAR gamma (Homo sapiens, UniProt P37231).
T2 construct: host or cells: engineered reporter cells of the kit
T2 sequence (P37231 1-505): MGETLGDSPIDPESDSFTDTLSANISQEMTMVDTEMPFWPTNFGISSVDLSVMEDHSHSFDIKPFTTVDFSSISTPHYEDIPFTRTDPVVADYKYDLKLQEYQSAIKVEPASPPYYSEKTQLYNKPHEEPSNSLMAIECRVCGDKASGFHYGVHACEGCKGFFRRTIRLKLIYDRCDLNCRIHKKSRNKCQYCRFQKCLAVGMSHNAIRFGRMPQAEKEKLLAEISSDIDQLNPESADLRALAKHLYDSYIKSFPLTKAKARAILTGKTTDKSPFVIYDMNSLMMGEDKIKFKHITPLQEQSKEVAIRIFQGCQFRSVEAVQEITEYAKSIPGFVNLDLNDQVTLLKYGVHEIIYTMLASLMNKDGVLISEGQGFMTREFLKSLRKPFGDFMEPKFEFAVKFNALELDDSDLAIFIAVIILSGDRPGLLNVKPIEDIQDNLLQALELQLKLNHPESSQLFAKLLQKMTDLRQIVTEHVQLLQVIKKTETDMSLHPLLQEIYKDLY
The test can be described thus: Target selectivity counterscreen, PPAR γ reporter assay. It is filed as cell-based. Conditions: receptor agonist at ~EC80. As to the method:
Target Selectivity Assays
To determine species selectivity, a Mouse PPARα Reporter Assay System was used (Indigo Biosciences, Cat. #M00111). Activity of test compounds to antagonize or agonize other isoforms of human PPAR, for example β/δ and γ, were assessed using the corresponding kits from Indigo Biosciences (Cat. #IB00121 and #IB00101, respectively). In addition to PPAR activity, compounds were also screened for activity against other nuclear hormone receptors including Estrogen Receptor β, Glucocorticoid Receptor and Thyroid Receptor β using commercially available kits (Indigo Biosciences, Cat. #IB00411, IB00201 and IB01101, respectively). Each assay system from Indigo Biosciences uses technology analogous to the human PPARα kit, with the variance being that the cells used for each assay were engineered to over-express the receptor of interest. In addition, the appropriate receptor agonist (included with each kit) was used at ˜EC80 for assays in which antagonist potency was being assessed.
A general note: Counterscreens check selectivity or assay interference.

Read-outs that look alike come from different tables or passages of the source.

`CCn1c(CCCc2ccc(-c3ccc(NS(=O)(=O)c4ccccc4)cn3)cc2)nn(Cc2ccc(C(C)(C)C)cc2)c1=O` [Example 10, N-(6-(4-(3-(1-(4-(tert-Butyl)benzyl)-4-ethyl-5-oxo-4,5-dihydro-1H-1,2,4-triazol-3-yl)propyl)phenyl)pyridin-3-yl)benzenesulfonamide]: the IC50 (usually the concentration at which inhibition is half-maximal) was found to be 67 nM at Human PPARα (counterscreen table, antagonist potency, read-out: PPAR alpha IC50); 67 nM on Human PPARα (human PPARα reporter cells, overnight incubation, antagonism, read-out: Luciferase IC50); 2900 nM on PPAR gamma.
